Patent US7632525B2, “Breath freshening and oral cleansing product with magnolia bark extract in combination with surface active agents” (Wm. Wrigley Jr. Company, priority 2002, dated 2009)

Legend:
Type in all cases: cell-based
incubated saliva = assay: MIC of surface active agents and emulsifiers on incubated saliva; conditions: for germ-kill efficacy: assessment in words of Table 9; for MIC (ppm): incubated saliva, 24 hours at 37° C.
Experimental: To evaluate the germ-kill efficacy and synergist effect when two or more germ-kill actives are combined, testing was performed to determine the ratio of MBE to surface active agent. The germ-kill active and/or surface active agent was dissolved in ethanol or sterile water to give an initial concentration 0.1% to 1%. […] These dilutions were inoculated with representative oral microorganisms, or incubated saliva, and incubated for 24 hours at 37° C. For each surface active agent, the lowest dilution that was not turbid was registered as the MIC. The MBC was determined by transferring 10 microliter of liquid from non-turbid tubes to fresh growth media and incubated for 48 hrs.

S. mutans = assay: MIC and fractional inhibitory index of MBE/surface active agent combinations on S. mutans; conditions: 24 hours at 37° C.
Experimental: To evaluate the germ-kill efficacy and synergist effect when two or more germ-kill actives are combined, testing was performed to determine the ratio of MBE to surface active agent. […] These dilutions were inoculated with representative oral microorganisms, or incubated saliva, and incubated for 24 hours at 37° C. For each surface active agent, the lowest dilution that was not turbid was registered as the MIC.

[1] = test system: bacteria from freshly-collected stimulated whole saliva (biofilm); assay: Mixed culture saliva biofilm on saliva-coated hydroxyapatite discs (medium pH and OD 600 nm)
Experimental: A mixed culture system that utilizes the bacteria from freshly-collected stimulated whole saliva was used. Saliva cell pellets were used to inoculate saliva-coated hydroxyapatite (S-HA) discs. The discs were placed in 24-well cell culture plates and incubated for up to 3 days. Biofilms were exposed to actives on days 2 and 3 (starting at 18 hours), and quantified on day 4. The number of bacteria was determined by spectrophotometric absorbance or optical density (OD) at 600 nm. The five phases of the experiment were: pellicle formation; bacterial attachment; biofilm growth; exposure to actives; and bacterial enumeration. To form the pellicles, HA Discs were ultrasonically washed in deionized water and air-dried, then autoclaved. The discs were placed in a 24 well plate with 1 ml 50% sterile saliva (1 part sterile whole saliva: 1 part saliva buffer, filter sterilize after preparation) for 2 hours with slow agitation at room temperature. The saliva was suctioned and then the discs were transferred to fresh wells for bacterial attachment. The discs were inoculated with salivary bacteria by one of two methods: (1) incubation with saliva bacteria suspended in 50% saliva at a standard OD for 2-h at 37° C.; after the attachment phase the discs are transferred to supplemented saliva growth medium, or (2) direct addition of bacteria with media and incubation. To form the biofilms, the bacterial suspension was removed, and the discs were transferred to fresh wells. One ml of supplemented saliva medium was added and the plate was placed in the incubator for overnight incubation and for the duration of the experiment (up to 72 hours). A stock solution of 1% Magnolia Bark Extract in 60% ethanol was prepared. […] One ml quantities of active ingredients and controls were placed into fresh wells, and the discs transferred to these wells for 5 minutes. The chlorhexidine control exposure was one minute, two times a day to mimic the standard mouth-rinse procedure. The exposure to active ingredient was carried out at 8:00 AM, 12:00 and 4:00 PM. After the timed exposure, the solution was removed and the discs washed twice with PBS and then transferred to fresh medium. For some experiments, the medium used during the day was Tryptic Soy Broth (TSB) with a 50 μl 40% sterile sucrose solution added to each well (to give a 2% sucrose solution). The medium was not replaced after the mid-day exposure. After overnight incubation (day 2), discs were exposed to controls and actives. On day 3 the biofilms were again exposed to tests and controls. On day 4 the discs were removed from the medium, the medium pH was measured to obtain an indication of metabolic activity, and the discs were placed into tubes with 2.5 ml PBS, vortexed for 20s, and then placed into the ultrasonic bath for another 20 sec. The suspension was transferred into cuvettes and the bacterial cell density determined by OD measurements at 600 nm. To evaluate the effect of Magnolia Bark Extract in combination with the surface active agent, sodium lauryl sulfate, five active ingredient solutions were prepared using the procedures described above. […] Also, the MBE solutions were prepared to have a concentration of 500 ppm. Sodium lauryl sulfate was added to two of the Magnolia Bark Extract solutions to obtain SLS concentrations of 0.05% and 0.1% in the Magnolia Bark Extract solutions. The testing with Magnolia Bark Extract described above was repeated with the five solutions.

| Compound | germ-kill efficacy (incubated saliva) | MIC (ppm) (incubated saliva) | other results |
| --- | --- | --- | --- |
| Sodium Brasslate | moderate germ-kill efficacy | 500 ppm | – |
| Cocamidopropyl Betaine | good germ-kill surface active agents | – | – |
| Sucrose Distearate | weak or non germ-kill actives | >500 ppm | – |
| Sodium Stearoyl Lactylate | weak or non germ-kill actives | >3000 ppm | – |
| N=C(NCCCCCCNC(=N)NC(=N)Nc1ccc(Cl)cc1)NC(=N)Nc1ccc(Cl)cc1.O=C(O)[C@H](O)[C@@H](O)[C@H](O)[C@H](O)CO.O=C(O)[C@H](O)[C@@H](O)[C@H](O)[C@H](O)CO [Chlorhexidine gluconate, reference compound] | – | 2 ppm | MIC/ppm (S. mutans): 2 ppm |
| Sucrose Stearate | weak or non germ-kill actives | >500 ppm | – |
| [H]/N=C(\N/C(=N/[H])NCCCCCCNC(=N)NC(=N)Nc1ccc(Cl)cc1)Nc1ccc(Cl)cc1 [CHX, chlorhexidine] | – | – | % OD reduction ([1]; OD 600 nm vs PBS control, CHX 0.12%, one minute, two times a day): 84%; % OD reduction ([1]; SLS combination experiment, OD 600 nm, CHX 0.1% (1000 ppm)): 94%; pH ([1]; SLS combination experiment, CHX 0.1% (1000 ppm)): 8.8; pH ([1]; medium pH day 4, CHX 0.12%, exposure one minute, two times a day): 8.8 |
| CCCCCCCCCCCC(=O)OCCOCCOCCOCCOCCOCCOCCOCCOCCOCCOCCOCCOCCOCCOCCOCCOCCOCCOCCOCCOCC(OCCOCCOCCOCCOCCOCCOCCOCCOCCOCCOCCOCCOCCOCCOCCOCCOCCOCCOCCOCCO)C1OCC(OCCOCCOCCOCCOCCOCCOCCOCCOCCOCCOCCOCCOCCOCCOCCOCCOCCOCCOCCOCCO)C1OCCOCCOCCOCCOCCOCCOCCOCCOCCOCCOCCOCCOCCOCCOCCOCCOCCOCCOCCOCCO (stereo not shown) [Tween 20, Polysorbate 20] | weak or non germ-kill actives | – | – |
| CCCCCCCCCCCCOS(=O)(=O)[O-].[Na+] [SLS, sodium lauryl sulfate] | good germ-kill surface active agents | – | % OD reduction ([1]; SLS combination experiment, OD 600 nm, 1000 ppm): 61%; pH ([1]; SLS combination experiment, 1000 ppm): 5.7 |
